According to patent US6987112B2, “Organic compound having cyano group and insecticides/miticides” (Nippon Soda Co., Ltd., priority 2000, dated 2006):
Where two headings read alike, the source gives them in different places.

Experiments:
Cotton Aphids = test: Efficacy on cotton aphids (spray on 1st instar nymphs on cucumber leaves); format: in vivo; details: 125 ppm spray, 25° C., 65% RH, five days later, duplicate
[1] = test system: susceptible Citrus red mite; test: Effects on Citrus red mite (spray on adult females on Citrus leaf in Petri dish); format: in vivo; details: Panonychus citri, read-out: percentage mortality
Procedure: Eight adult females of susceptible Citrus red mite were inoculated on the surface of Citrus leaf placed in a glass Petridish. […] The solution was sprayed on the mites using a rotary spraying tower up to the fixed volume. […] The test was carried out in duplicate.

How did the percentage mortality (Cotton Aphids) turn out when `Cc1nc(N(C)C)nc(OC(=O)N(C)C)c1C` [pyrimicarb] was run?
Its percentage mortality is 9%.

With `Cc1cc(Cl)ccc1N=CN(C)C` [chlordimeform] as the compound, how does the mortality at 125 ppm [1] read?
Its mortality at 125 ppm is 13%.

`Cn1nc(C(F)(F)F)c(C(OC(=O)C(C)(C)C)=C(C#N)Oc2ccc(Cl)cc2)c1Cl` [Compound No. 3-9, β-(5-chloro-1-methyl-3-trifluoromethylpyrazole-4-yl)-α-(4-chlorophenoxy)-β-pivaloyloxyacrylonitrile] was tested. Which mortality at 125 ppm (Cotton Aphids; 120 h, read-out: percentage mortality) did it give?
Its mortality at 125 ppm is 100%.

What about the mortality at 125 ppm ([1]; 125 ppm spray (wettable powder), adult females on Citrus leaf, 25° C., 65% RH, third day after spraying, duplicate) of the same compound?
Its mortality at 125 ppm is 100%.
